According to patent publication US20260078099A1, “COMPOUND, PREPARATION METHOD THEREOF, AND LIPID NANOPARTICLE AND PHARMACEUTICAL COMPOSITION” (priority 2023, published 2026):

How the values were obtained:
[1] = LNP size and PDI by dynamic light scattering; assay type: physicochemical; details: mRNA LNP, cationic lipid/DSPC/cholesterol/PEG-lipid 50:10:38.5:1.5
Method: (§1) In summary, the cationic lipid described herein, DSPC, cholesterol, and PEG-lipid were dissolved in ethanol at a molar ratio of 50:10:38.5:1.5 and diluted in 10 mM to 50 mM citrate buffer at pH 4 with mRNA. Using a microfluidic device, the lipid ethanol solution was mixed with mRNA aqueous solution at a volume ratio of 1:3 and a total flow rate ranging from 6-30 mL/min, preparing LNPs with a total lipid to mRNA weight ratio of approximately 10:1 to 30:1. Ethanol was removed by dialysis and replaced with PBS. Finally, the lipid nanoparticles were filtered through a 0.22 μm sterile filter.
(§2) The size of lipid nanoparticles was measured by dynamic light scattering using a Malvern Zetasizer Nano ZS (Malvern, UK) with a 90° scattering detection mode. The encapsulation efficiency of lipid nanoparticles was determined using the Quant-it Ribogreen RNA Quantitation Kit (Thermo Fisher Scientific, UK) according to the manufacturer's instructions. The apparent pKa of LNP formulations correlates with the delivery efficiency of nucleic acids by LNPs in vivo. The apparent pKa ranges from approximately 5 to 7. An analysis based on fluorescence from 2-(p-tolylamino)-6-naphthalenesulfonic acid (TNS) was used to determine the apparent pKa of formulations. As described above, LNP formulations containing cationic lipid/DSPC/cholesterol/DMG-PEG (50/10/38.5/1.5 mol %) in PBS were prepared. A 300 μM stock solution of TNS in distilled water was prepared. LNP formulations were diluted to 0.1 mg/mL total lipid in 3 mL of buffer solution containing 50 mM sodium citrate, 50 mM sodium phosphate, 50 mM sodium borate, and 30 mM sodium chloride (pH ranged from 3 to 9). […] S-shaped curve best-fit analysis was applied to the fluorescence data, and the pKa value was measured as the pH value producing half-maximal fluorescence intensity.

[2] = LNP encapsulation efficiency (Quant-it Ribogreen); assay type: physicochemical; details: mRNA LNP, cationic lipid/DSPC/cholesterol/PEG-lipid 50:10:38.5:1.5
Text: Encapsulation Efficiency: The encapsulation efficiency of a therapeutic and/or prophylactic agent refers to the amount of the therapeutic and/or prophylactic agent encapsulated within or otherwise associated with the nanoparticle composition relative to the initial amount provided during preparation. Encapsulation efficiency is desirably high (such as close to 100%). Encapsulation efficiency can be measured, for example, by comparing the amount of therapeutic and/or prophylactic agent in a solution containing the nanoparticle composition before and after disruption of the nanoparticle composition using one or more organic solvents or detergents. Fluorescence can be used to measure the amount of free therapeutic and/or prophylactic agent (e.g., RNA) in solution. For the nanoparticle compositions described herein, the encapsulation efficiency of the therapeutic and/or prophylactic agent may be at least 50%, such as 50%, 55%, 60%, 65%, 70%, 75%, 80%, 85%, 90%, 91%, 92%, 93%, 94%, 95%, 96%, 97%, 98%, 99%, or 100%. In some embodiments, the encapsulation efficiency may be at least 80%. In certain embodiments, the encapsulation efficiency may be at least 90%.
as §1, §2

[3] = LNP zeta potential; assay type: physicochemical; details: mRNA LNP
Text: Nanoparticle compositions can be characterized by various methods. For example, the morphology and size distribution of nanoparticle compositions can be examined using microscopy (e.g., transmission electron microscopy or scanning electron microscopy). The zeta potential can be measured using dynamic light scattering or potentiometric titration. Dynamic light scattering can also be used to determine particle size. Instruments such as the Zetasizer Nano ZS (Malvern Instruments Ltd., Malvern, Worcestershire, UK) can also be used to measure multiple characteristics of nanoparticle compositions, such as particle size, polydispersity index, and zeta potential.
[…]: The zeta potential of the nanoparticle composition can indicate the electrophoretic potential of the composition. For example, zeta potential may describe the surface charge of the nanoparticle composition. Nanoparticle compositions with relatively low positive or negative charges are generally desirable, as materials with higher charges may interact undesirably with cells, tissues, and other components in the body. In some embodiments, the zeta potential of the nanoparticle composition may be about −10 mV to about +20 mV, about −10 mV to about +15 mV, about −10 mV to about +10 mV, about −10 mV to about +5 mV, about −10 mV to about 0 mV, about −10 mV to about −5 mV, about −5 mV to about +20 mV, about −5 mV to about +15 mV, about −5 mV to about +10 mV, about −5 mV to about +5 mV, about −5 mV to about 0 mV, about 0 mV to about +20 mV, about 0 mV to about +15 mV, about 0 mV to about +10 mV, about 0 mV to about +5 mV, about +5 mV to about +20 mV, about +5 mV to about +15 mV, or about +5 mV to about +10 mV.

[4] = tested on: mice; assay: Bioluminescent study, intramuscular injection of F-luc mRNA LNPs; assay type: in vivo; details: F-luc luminescence flux normalized to MC3; 0.25 mg/kg intramuscular, mice n=3, 6-hour time point
Method: The efficacy of nanoparticle compositions was evaluated using bioluminescent studies. A dose of 0.25 mg/kg (mpk) of the formulation was administered to mice (n=3) via intramuscular injection, and bioluminescence was measured at a 6-hour time point. The test lipid nanoparticles from the MC3 formulation were evaluated, and in some cases, controls (e.g., PBS controls) were assessed for comparison.
The characteristics of the test lipid nanoparticles measured from the test groups, including F-luc luminescence intensity, are listed in the table below.

SMILES | PDI [1] | Size (nm) [1] | Encapsulation efficiency (%) [2] | Zeta potential (mV) [3] | Relative Total flux [4]
CCCCCCCC/C=C\CCCCCCCCNC(=O)C(CCCCCCCC)N(CCCCCCCC/C=C\CCCCCCCC)C(=O)CCCN(C)C (stereo not shown) [Compound C1] | 0.108 | 60.62 nm | 82.31% | −9.90 mV | B (B: ≥1 and <2)
CCCCCCCCCCOCCCCCCCC(=O)N(CCCN(C)C)C(CCCCCCCC)C(=O)NCCCCCCCC (stereo not shown) [Compound A42] | 0.19 | 90.78 nm | 95.23% | −1.88 mV | A (A: ≥2)
CCCCCCCCNC(=O)C(CCCCCCCC)N(CCCCN(C)C)C(=O)CCCCCCC(=O)OC(CCCCCCCC)CCCCCCCC (stereo not shown) [Compound A35] | 0.19 | 74.92 nm | 97.34% | −7.81 mV | A (A: ≥2)
CCCCCCCCC(C(=O)NCCCCCCCCCC(=O)OCC1CC=CCC1)N(CCCN(C)C)C(=O)CCCCCCCCCC(=O)OC(CCCCCC)CCCCCC (stereo not shown) [Compound A20] | 0.113 | 93.07 nm | 60.65% | 17.70 mV | D (D: <0.1.)
CCCCCCCCNC(=O)CCCCCNC(=O)C(CCCCCCCC)N(CCCN(C)C)C(=O)CCCCCC(=O)NC(CCCCCCC)CCCCCCC (stereo not shown) [Compound A31] | 0.22 | 79.94 nm | 97.50% | −4.31 mV | B (B: ≥1 and <2)
CCCCCCC(CCCCCC)OC(=O)CCCCCCCCCNC(=O)CN(CCN(C)CCN(CC(=O)NCCCCCCCCCC(=O)OC(CCCCCC)CCCCCC)C(=O)CCCCCCCCCC(=O)OC(CCCCCC)CCCCCC)C(=O)CCCCCCCCCC(=O)OC(CCCCCC)CCCCCC [Compound D5] | 0.183 | 78.42 nm | 96.72% | −17.80 mV | A (A: ≥2)
CCCCCCCCNC(=O)C(CCCCC)N(CCCN(C)C)C(=O)CCCCCCC(=O)OC(CCCCCCCC)CCCCCCCC (stereo not shown) [Compound A28] | 0.15 | 88.05 nm | 85.93% | −0.41 mV | A (A: ≥2)
CCCCCCCCC(CCCCCC)COC(=O)CCCCCNC(=O)C(CCCCC)N(CCCN1CCCC1)C(=O)CCCCCC(=O)OCC(CCCCCC)CCCCCCCC (stereo not shown) [Compound A45] | 0.06 | 79.00 nm | 94.62% | 0.83 mV | A (A: ≥2)
CCCCCCCCNC(=O)C(CCCCCCCC)N(CCCN1CCCC1)C(=O)CCCCCCC(=O)OC(CCCCCCCC)CCCCCCCC (stereo not shown) [Compound A36] | 0.17 | 79.52 nm | 92.48% | −1.82 mV | A (A: ≥2)
CCCCCCCCNC(=O)C(CCCCCCCC)N(CCN(CC)CCO)C(=O)CCCCCCC(=O)OC(CCCCCCCC)CCCCCCCC (stereo not shown) [Compound B29] | 0.10 | 62.10 nm | 93.73% | 1.69 mV | A (A: ≥2)
CCCCCCCCC(CCCCCCCC)OC(=O)CCCCCC(=O)N(CCCN(C)C)C(CCCCCCCC)C(=O)NCCCCCC(=O)OCCC12CC3CC(CC(C3)C1)C2 (stereo not shown) [Compound A48] | 0.08 | 64.27 nm | 94.62% | 0.65 mV | A (A: ≥2)
CCCCCCCCNC(=O)C(CCCCCCCC)N(CCN(CCO)CCO)C(=O)CCCCCCC(=O)OC(CCCCCCCC)CCCCCCCC (stereo not shown) [Compound B32] | 0.32 | 119.93 nm | 93.95% | 7.87 mV | A (A: ≥2)
CCCCCCCCNC(=O)C(CCCCCCCC)N(CCCN(C)CCO)C(=O)CCCCCCC(=O)OC(CCCCCCCC)CCCCCCCC (stereo not shown) [Compound B30] | 0.08 | 64.27 nm | 93.97% | 3.81 mV | A (A: ≥2)
CCCCCCCCC(CCCCCC)COC(=O)CCCCCCCCCNC(=O)C(CCCCCCCC)N(CCCN(C)C)C(=O)CCCCCCCCCC(=O)OCC(CCCCCC)CCCCCCCC (stereo not shown) [Compound A14] | 0.228 | 89.33 nm | 94.31% | 4.02 mV | C (C: ≥0.1 and <1)
CCCCCCCCNC(=O)C(CCCCCCCC)N(CCCN(CCO)CCO)C(=O)CCCCCCC(=O)OC(CCCCCCCC)CCCCCCCC (stereo not shown) [Compound B26] | 0.22 | 105.63 nm | 92.99% | −1.65 mV | D (D: <0.1.)
CCCCCCCC(C(=O)NCCCCCCCCCC(=O)OC(CCCCCC)CCCCCC)N(CCN(CCO)C1CCCCC1)C(=O)CCCCCCCCCC(=O)OC(CCCCCC)CCCCCC (stereo not shown) [Compound B15] | 0.182 | 87.64 nm | 95.93% | 2.43 mV | A (A: ≥2)
CCCCC/C=C\C/C=C\CCCCCCCC(=O)N(CCCN1CCCC1)CC(=O)NCCCCCCCCCCCCCC [Compound A21] | 0.071 | 95.73 nm | 54.53% | 11.03 mV | C (C: ≥0.1 and <1)
CCCCCCCCC(C(=O)NCCCCCCCCCC(=O)OCCCCCC)N(CCCN(C)C)C(=O)CCCCCCCCCC(=O)OCCCCCC (stereo not shown) [Compound A16] | 0.183 | 78.42 nm | 41.55% | 0.78 mV | C (C: ≥0.1 and <1)
CCCCCCC(CCCCCC)OC(=O)CCCCCCCCCNC(=O)C(CCCCCCCCCC(=O)OC(CCCCCC)CCCCCC)N(CCCN(C)C)C(=O)CCCN(C)C (stereo not shown) [Compound E6] | 0.246 | 81.59 nm | 96.54% | −6.48 mV | C (C: ≥0.1 and <1)
CCCCCCCCNC(=O)C(CCCCCCCC)N(CCCN(C)C)C(=O)CCCCCC(=O)NC(CCCCCCC)CCCCCCC (stereo not shown) [Compound A32] | 0.13 | 85.33 nm | 95.33% | 1.89 mV | B (B: ≥1 and <2)
